Test results published in US10399992B2, “Process for preparing AD-35” (Zhejiang Hisun Pharmaceutical Co., Ltd., priority 2016, dated 2019).

Key:
acetylcholinesterase = acetylcholinesterase (Homo sapiens, UniProt P22303); assay: inhibiting acetylcholinesterase in vitro; type: biochemical; conditions: compared with donepezil
IL-1β = assay: rat model of Alzheimer's disease induced by Aβ25-35: IL-1β production and release; type: in vivo
nerve cells = assay: rat model of Alzheimer's disease induced by Aβ25-35: toxicity of Aβ25-35 to nerve cells; type: in vivo
[1] = Phase 1 Clinical Single Ascending Dose study (SAD); type: in vivo; conditions: subjects; 90 mg in a single dose
Morris water maze test = type: in vivo; conditions: compared with donepezil
[2] = chelation of transition metal ions in vitro; type: physicochemical
TNF-α = assay: rat model of Alzheimer's disease induced by Aβ25-35: TNF-α production and release; type: in vivo
[3] = acute toxicity test in mice; conditions: compared with donepezil

Sequence of acetylcholinesterase (P22303 32-614): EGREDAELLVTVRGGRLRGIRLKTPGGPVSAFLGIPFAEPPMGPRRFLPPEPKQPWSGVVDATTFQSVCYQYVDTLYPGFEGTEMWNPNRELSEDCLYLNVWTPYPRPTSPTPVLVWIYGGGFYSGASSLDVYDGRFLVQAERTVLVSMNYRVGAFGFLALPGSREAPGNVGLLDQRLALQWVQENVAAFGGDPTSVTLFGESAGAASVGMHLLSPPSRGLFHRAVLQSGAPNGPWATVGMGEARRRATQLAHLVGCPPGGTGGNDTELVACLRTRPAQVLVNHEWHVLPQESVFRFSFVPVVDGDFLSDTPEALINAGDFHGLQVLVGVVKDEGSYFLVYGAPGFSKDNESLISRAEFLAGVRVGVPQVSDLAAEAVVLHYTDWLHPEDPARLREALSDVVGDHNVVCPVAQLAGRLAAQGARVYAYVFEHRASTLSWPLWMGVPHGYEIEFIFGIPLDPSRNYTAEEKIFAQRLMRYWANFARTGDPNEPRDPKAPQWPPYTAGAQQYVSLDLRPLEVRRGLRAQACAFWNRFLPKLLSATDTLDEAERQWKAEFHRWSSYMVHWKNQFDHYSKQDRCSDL

O=C1c2cc3c(cc2C2(CC2)N1CCC1CCN(Cc2ccccn2)CC1)OCO3 [AD-35, 6-[2-[1-(2-pyridylmethyl)-4-piperidinyl]ethyl]spiro[[1,3]dioxolo[4,5-f]isoindole-7,1′-cyclopropane]-5-one phosphate]
activity of inhibiting acetylcholinesterase in vitro relative to donepezil (acetylcholinesterase): about one-tenth of the activity of donepezil
production and release of pro-inflammatory cytokine IL-1β (IL-1β): significantly inhibit
toxicity of Aβ25-35 to nerve cells (nerve cells): greatly reduces the toxicity of Aβ25-35 to nerve cells
adverse reactions [1]: did not develop adverse reactions
efficacy in the Morris water maze test (improving memory and learning ability) (Morris water maze test): comparable efficacy to that of donepezil
ability to chelate transition metal ions such as Cu^2+ [2]: exhibits a certain ability to chelate transition metal ions
production and release of pro-inflammatory cytokine TNF-α (TNF-α): significantly inhibit
acute toxicity [3]: much less toxic than donepezil
